# Tested on: B. plicatilis rotifer
# Assay: Rotifer feeding rate toxicity test (fluosphere ingestion measured by laser fluorescence capillary device)
# Format: in vivo, Brachionus plicatilis
# Procedure: Water quality monitoring using rotifers was performed using a capillary tube with an internal diameter of 70 μm, a narrow band, 635 nm, 3 mW diode laser with a beam diameter of 40 μm was used. Interference filters were selected to transmit 12% at 670 nm (20 nm FWM), and 10^−6 at all other wavelengths.
# 1. A live B. plicatilis rotifer culture was obtained from Aqua-Farms, Fla. These rotifers were chosen because they are easy to raise, and the influence of toxic samples on their feeding, reproduction, and death rates have been studied extensively. The average concentration of rotifers in a 100 ml vial was counted using five 20 μl samples examined under a 50× microscope. […]
# 2. Two samples of 8 ml each were used to make the feeding rate measurements, a reference sample and test sample. These two vials were filled with the 500 rotifers/ml reference solution.
# 3. A […] diazanon solution was prepared using the rotifer medium solution, so as to maintain water quality parameters such as pH, O2, alkalinity, salinity, and temperature as constant as possible. A 20 μl amount of the diazanon solution was added to test sample.
# 4. After a 5 minute incubation, 20 μl of a 40×10^6 beads/ml solution of crimson fluospheres was added to both the reference and test samples. The time was noted as t=0.
# 5. Using two identical syringes connected with a luer union to a 100 μm piece of nylon tubing terminated with a 20 μm plankton filter, a 50 μl sample was extracted from the reference and test samples. In both cases, the organisms were filtered out from the bead solution.
# 6. The reference and test samples were successively passed through the test chamber using the syringe pump at a flow rate of 15 μl/min. […]
# Each data file was retrieved, using TOXANA™, a time series data analysis software program. […] An assessment of the signal baseline mean and variance values (where no peak is detected) was made for each file. […]
# The number of peaks with an intensity above Td were calculated for each file, as well as the average peak intensity, the average peak width, and the average peak area.
compound,measurement,setting,value
CCOP(=S)(OCC)Oc1cc(C)nc(C(C)C)n1 [diazanon],feeding rate reduced by a factor (vs control sample),"exposure to 1 ppm of diazanon, 500 rotifers/ml, FIG. 7B",30
same,ingestion rate per organism,"test sample containing 1 ppm of diazanon, 500 rotifers/ml, 5 minute incubation, FIG. 7B",10^−3 beads/sec
same,feeding rate,"test sample containing 1 ppm of diazanon, 600 rotifers/ml, FIG. 7C",less than 0.05 beads/min

# Source: patent publication US6816257B2, “Method and apparatus for detecting microparticles in fluid samples” (priority 1997, dated 2004)
